Assay results: PubChem BioAssay (NCI)
Where “and” joins values, the source holds several entries; their conditions need not be identical. Equal entries are not always repeated.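 48-hour exposure; five concentrations; linearly interpolated endpoints. GI50 = concentration required for 50% inhibition of growth. TGI marks complete inhibition of growth.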

Key:
Test in all cases: NCI-60 cell line screen, 48 h
[1] = tested on: CCRF-CEM leukemia
[2] = tested on: EKVX NSCLC
[3] = tested on: HCC-2998 colon
[4] = tested on: HL-60(TB) leukemia
[5] = tested on: NCI-H23 lung
[6] = tested on: RPMI-8226 leukemia
[7] = tested on: SF-268 CNS
[8] = tested on: SR leukemia
[9] = tested on: MDA-MB-435
[10] = tested on: OVCAR-4 ovarian

Compound	TGI [1] [µM]	TGI [2] [µM]	TGI [3] [µM]	TGI [4] [µM]	TGI [5] [µM]	TGI [6]	TGI [7] [µM]	TGI [8] [µM]	GI50 [3] [µM]	GI50 [9] [µM]	TGI [9]	GI50 [10] [µM]	TGI [10] [µM]	GI50 [7] [µM]	GI50 [2]	GI50 [4] [µM]	GI50 [5] [µM]	GI50 [1] [µM]	GI50 [6] [µM]	GI50 [8] [µM]
COc1cc(Nc2cnc3ccc(C(F)(F)F)cc3n2)cc(OC)c1OC	> 100	> 100	> 100	> 100	> 100	> 100 µM	> 100	> 100	–	–	–	–	–	–	–	–	–	–	–	–
FC(F)(F)Oc1cccc(-c2cc(NCCCCCCNc3cc(-c4cccc(OC(F)(F)F)c4)nc4ccc(N5CCCC5)cc34)c3cc(N4CCCC4)ccc3n2)c1	–	–	3.27	–	–	–	3.9	–	1.74	1.82	3.27 µM	1.7	3.19	1.94	–	–	–	–	–	–
CCCCCCCCCCCC[N+]1(CCCCCCCCCCCC)CCCC(C)C1 (centres undefined)	–	1.65	1.38	0.666	0.399	–	1.25	–	0.303	0.277	1.09 µM	–	–	0.293	0.269 µM	0.174	0.113	–	–	–
CC1=N/C(=C\c2ccc(/C=C3/N=C(C)OC3=O)cc2)C(=O)O1	> 100	–	> 100	–	> 100	> 100 µM	> 100	–	–	–	–	–	> 100	–	–	–	–	–	–	–
COCC([C@@H](O)C(O)C(=O)NCC[C@@H](C)c1nc(/C=C/CC2OC3(C[C@H](O)C2C)OC(C(C[C@H](O)C(C)[C@H](O)C(C)/C=C(C)/C(C)=C/C=C/C(C)=C/C#N)OC)[C@@H](OP(=O)(O)O)C3(C)C)co1)N(C)C (some centres undefined)	–	0.000326	0.000325	0.00207	0.0021	–	0.000344	–	–	–	0.000336 µM	–	0.00274	–	–	–	–	–	–	–
O=C(NC1C(=O)NNC1c1cccc([N+](=O)[O-])c1)c1ccccc1 (centres undefined)	> 100	> 100	> 100	> 100	> 100	> 100 µM	> 100	–	–	–	–	–	> 100	–	–	–	–	–	–	–
CCn1cc(C(=O)O)c(=O)c2cc(F)c(N3CCN(S(=O)(=O)c4cccc5ccccc45)CC3)cc21	> 100	–	61.9	6.41	12.1	9.73 µM	> 100	–	4.26	3.13	14.5 µM	2.6	> 100	4.39	–	2.58	3.13	3.67	2.79	–
N#CNC(N)=NCc1ccccc1	> 100	–	> 100	> 100	> 100	> 100 µM	> 100	> 100	–	–	–	–	> 100	–	–	–	–	–	–	–
COc1cc2oc(-c3ccc(O)cc3)cc(=O)c2c(O)c1C1OC(CO)C(O)C(O)C1O (centres undefined)	> 100	> 100	> 100	> 100	> 100	> 100 µM	> 100	> 100	–	–	–	–	> 100	–	–	–	–	–	–	–
Cc1ccc(S(=O)(=O)OCC/C(=C\[Si](C)(C)C)c2ccccc2)cc1	> 100	> 100	> 100	> 100	> 100	> 100 µM	> 100	> 100	–	–	–	–	> 100	–	–	–	–	–	–	–
O=C(NC12CC3CCC1CC(C3)C2)[C@@H]1CCCN1C(=O)OCc1ccccc1 (some centres undefined)	> 100	> 100	> 100	73.3	> 100	> 100 µM	> 100	> 100	–	–	–	–	–	–	–	–	–	–	–	–
OCc1cc2c(cn1)[nH]c1ccc(NCc3ccccc3)cc12	64.7	> 100	58.9	31.4	> 100	35.8 µM	70.9	–	–	–	–	–	> 100	–	–	–	–	–	–	–
CCCCCCCC(=O)OCC(COC(=O)C(C)(C)C)OC(=O)Cc1ccccc1 (centres undefined)	> 100	–	> 100	> 100	> 100	> 100 µM	> 100	–	–	–	–	–	> 100	–	–	–	–	–	–	–
O=C1NC(=O)c2c1n(Cc1ccccc1)c(=O)n2Cc1ccccc1	> 100	> 100	> 100	> 100	> 100	> 100 µM	> 100	–	–	–	–	–	> 100	–	–	–	–	–	–	–
Cc1ccc2c(c1)CN1c3ccc(C)cc3CN2C1c1ccccc1O	> 100	54.9	–	> 100	> 100	> 100 µM	> 100	> 100	–	–	–	–	> 100	–	–	–	–	–	–	–
C[C@]12CCC3[C@@H](CCC45OC4C(=O)CC[C@]35C)C1Cc1cnn(-c3ccc(F)cc3)c1N2 (some centres undefined)	> 100	> 100	–	41.9	54.4	54.7 µM	77.8	> 100	–	–	–	–	–	–	–	–	–	–	–	–
COC(=O)CCC(NC(=S)N/N=C/c1cccs1)C(=O)OC (centres undefined)	–	> 100	> 100	> 100	> 100	–	> 100	> 100	–	–	–	–	> 100	–	–	–	–	–	–	–
O=C(Nc1ccc(N=C=S)cc1Cl)c1cc(Br)cc(Br)c1O	–	–	–	> 100	55.2	–	> 100	62	–	–	71.4 µM	–	> 100	–	–	–	–	–	–	–
O=c1cc(O)cc2n1CCC2	> 100	> 100	> 100	–	–	> 100 µM	> 100	–	–	–	–	–	–	–	–	–	–	–	–	–
N#Cc1nc2c(S(=O)(=O)c3ccc(Cl)cc3)c(N)n(Nc3cccc(Cl)c3)c2nc1C#N	–	–	> 100	0.0871	–	0.019 µM and 0.0668 µM	> 100	–	0.0161	0.0497	0.379 µM and 0.067 µM	0.0166	–	–	0.0693 µM and 0.0266 µM	0.0052	0.0324	0.0101	0.00251	–
Cc1cc([N+](=O)[O-])c(C)c2c1[nH]c1ccc(Cl)cc12	> 100	> 100	> 100	> 100	> 100	> 100 µM	> 100	> 100	–	–	–	–	> 100	–	–	–	–	–	–	–

Compound	TGI [1] [µM]	TGI [2] [µM]	TGI [3] [µM]	TGI [4] [µM]	TGI [5] [µM]	TGI [6]	TGI [7] [µM]	TGI [8] [µM]	GI50 [3] [µM]	GI50 [9] [µM]	TGI [9]	GI50 [10] [µM]	TGI [10] [µM]	GI50 [7] [µM]	GI50 [2]	GI50 [4] [µM]	GI50 [5] [µM]	GI50 [1] [µM]	GI50 [6] [µM]	GI50 [8] [µM]
COc1cc(CNc2nc3cc(N)cc(N)c3nc2-c2ccccc2)cc(OC)c1	5.68	8.91	–	> 100	> 100	6.22 µM	> 100	> 100	–	–	–	0.014	0.974	5.32	2.8 µM	3.84	16.2	1.72	–	3.84
N#C/C(=C\c1cc(OCc2ccccc2)c(OCc2ccccc2)cn1)C(N)=O	> 100	> 100	> 100	36.9	> 100	> 100 µM	> 100	–	–	–	–	–	> 100	–	–	–	–	–	–	–
COc1ccc(C(=O)c2cc(OC)c(OC)c(OC)c2OC)cc1O	–	> 100	65.1	9.82	> 100	–	> 100	> 100	6.15	–	–	6.14	> 100	4.19	28.6 µM	2.77	3.71	–	–	0.61
Cc1nc2ccccc2nc1CC(=O)C(=O)Nc1ccc(Cl)cc1Cl	> 100	> 100	> 100	> 100	> 100	> 100 µM	> 100	–	–	–	–	–	> 100	–	–	–	–	–	–	–
Cc1nc(N)nc(CCC(=O)Nc2cccc(C(F)(F)F)c2)c1-c1ccc(Cl)cc1	> 100	> 100	> 100	> 100	> 100	> 100 µM	> 100	56.8	–	–	–	–	> 100	–	–	–	–	–	–	–
COc1cc(C)c(CC/C(C)=C/Cc2cc(O)ccc2O)c(C)c1C	> 25	> 25	> 25	> 25	> 25	> 25 µM	> 25	> 25	–	–	–	–	> 25	–	–	–	–	–	–	–
CCOC(=O)c1nc(C)oc1C(F)(F)F	> 100	> 100	> 100	> 100	> 100	–	> 100	> 100	–	–	–	–	> 100	–	–	–	–	–	–	–
O=C1[C@@H]2C(c3c(Cl)cccc3Cl)=NO[C@@H]2C(=O)N1c1ccc(Cc2ccc(N3C(=O)[C@H]4C(c5c(Cl)cccc5Cl)=NO[C@H]4C3=O)cc2)cc1	> 100	> 100	> 100	> 100	> 100	> 100 µM	> 100	–	–	–	–	–	> 100	–	–	–	–	–	–	–
COc1ccc(CNc2cnc3ccc(N)cc3n2)cc1	> 100	> 100	> 100	> 100	> 100	> 100 µM	> 100	–	–	–	–	–	> 100	–	–	–	–	–	–	–
CC(=O)O[C@H]1C(=O)[C@@]2(C)C([C@H](OC(=O)c3ccccc3)[C@]3(O)C[C@H](OC(=O)[C@H](O)[C@@H](NC(=O)c4ccccc4)c4ccccc4)C(C)=C1C3(C)C)[C@]1(OC(C)=O)CO[C@@H]1C[C@@H]2O (some centres undefined)	> 50	–	–	0.0209	> 50	> 50 µM	> 50	> 50	0.00868	–	–	0.198	> 50	0.021	–	0.00528	0.0125	0.0141	< 0.005	< 0.005
CCc1cccc(C)c1NC(=O)CCc1nc(=S)[nH][nH]1	> 100	> 100	> 100	> 100	> 100	> 100 µM	> 100	> 100	–	–	–	–	> 100	–	–	–	–	–	–	–
COc1cc([C@@H]2c3cc4c(cc3[C@@H](NC(=O)c3ccc(C#N)cc3)C3COC(=O)[C@@H]32)OCO4)cc(OC)c1O (some centres undefined)	> 100	5.73	4.18	11.1	0.837	11.7 µM	16.9	–	–	–	–	–	> 100	–	–	–	–	–	–	–
CCCCCOc1ccc(/C=N/Nc2cc(C)nc3ccc(Cl)cc23)cc1	–	3.07	3.54	3.36	3.47	–	4.46	1.73	1.95	1.75	3.21 µM	1.72	3.22	2.23	1.67 µM	1.64	1.78	–	–	0.369
COC(=O)C1C(=O)O[C@@H](c2ccc3c(c2)OCO3)C1C(=O)OC (mixture of isomers)	> 100	> 100	> 100	> 100	> 100	> 100 µM	> 100	> 100	–	–	–	–	> 100	–	–	–	–	–	–	–
O=[N+]([O-])c1cccc(C2=NN(c3ccccc3)C3c4cc(Br)ccc4OCC23)c1 (centres undefined)	> 100	> 100	> 100	> 100	> 100	> 100 µM	> 100	–	–	–	–	–	–	–	–	–	–	–	–	–
CCOC(=O)C1C(c2ccc(Cl)cc2Cl)NC(c2ccc(C)cc2)C(C(=O)OC)S1(=O)=O (centres undefined)	> 100	> 100	> 100	> 100	> 100	> 100 µM	> 100	> 100	–	–	–	–	> 100	–	–	–	–	–	–	–
COC(=O)OC1C(O[C@H]2C[C@H]3[C@@H]4CC=C5C[C@@H](O)CC[C@]5(C)[C@H]4CC[C@]3(C)[C@H]2[C@H](C)C(=O)CCC(C)C)OCC(O)C1OC1OCC(O)C(O)C1OC(=O)c1ccc(OC)cc1 (some centres undefined)	–	2.55	> 27.5	–	5.94	0.00491 µM	2.24	–	1.44	0.00874	0.0868 µM	0.0823	> 27.5	0.0137	0.0196 µM	–	0.138	–	< 0.00275	–
COC(=O)/C=C(/C(=O)OC)C1(C)c2cc(C(=O)OC)c(C(=O)OC)c(N)c2C(=N)N1c1ccccc1 (centres undefined)	50.4	> 100	51.6	32.6	45.6	57.6 µM	41	58.5	–	–	–	–	–	–	–	–	–	–	–	–
C[C@]12Cc3cn[nH]c3C(=O)C1CC[C@@H]1C2CC[C@@]2(C)C1CC[C@@H]2O (some centres undefined)	> 100	> 100	–	> 100	> 100	> 100 µM	> 100	–	–	–	–	–	> 100	–	–	–	–	–	–	–
COc1ccc(OC)c(NCC(=O)n2nc(/C=C\c3ccc(O)c(OC)c3)cc2/C=C\c2ccc(O)c(OC)c2)c1	> 100	15.6	3.98	5.05	31.7	3.54 µM	> 100	–	2.04	1.5	9.6 µM	3.43	22.7	2.37	3 µM	0.989	2.62	0.474	0.702	–
